Data taken from patent US12421222B2 (AUGUSTINE THERAPEUTICS, priority 2021, dated 2025).

Tested on: acetylated tubulin (Lys40) in HeLa cells
Experiment: Acetylated α-tubulin measurement in vitro (immunocytochemistry)
Format: cell-based
Conditions: Homo sapiens, 6 hours incubation, acetylated tubulin (Lys40) by immunocytochemistry, read-out: IC50 (Tubulin deacetylation)
Method: HeLa cells were cultured in UltraCulture serum-free medium (Lonza) supplemented with 2 mM glutamine (Lonza). Assays were performed at 96-well or 384-well format, differences in assay protocols are detailed in Table 6. Cells per well were plated and incubated overnight at 37° C. overnight in a humidified atmosphere containing 5% CO2. Cell density and seeding volumes are detailed in Table 6. Compounds (dissolved in 100% DMSO) or DMSO (vehicle) were added manually by diluting them in culture medium at 10× final assay concentration and adding 10 μL to cells (96-well protocol). Alternatively, 50 nL compound was added directly to the cell culture using the Echo650 (Labcyte) (384-well protocol). In this assay, the final assay concentration of DMSO is 0.1%-0.4%. Trichostatin A (TSA) was used as a positive control. Cells were incubated with compounds at 37° C. in a humidified atmosphere containing 5% CO2 for 6 hours. Levels of acetylated tubulin (Lys40) were assessed by immunocytochemistry using target-specific antibodies. Cells were fixed with 4% PFA at RT as detailed in Table 6. After 2-3 wash steps with PBS, cells were permeabilized with 0.5% Triton in PBS at RT for 10 minutes followed by 1-2 washes with PBS. To avoid non-specific antibody staining, cells were blocked with 3% BSA in PBS at room temperature for 1 hour. […] Cells were washed 2-3 times with PBS and labelled for 1 h at RT with goat anti-mouse conjugated with Alexa 647 (Thermofisher) and goat anti-rabbit conjugated with Alexa 555 (Thermofisher) secondary antibodies, diluted in 1% BSA to a final concentration of 1:1000. Simultaneously, nuclei were stained with 1:10000-1:15000 Hoechst (Thermofisher). Incubation time and temperature of the primary antibodies are detailed in Table 6. Cells were washed 2-3 times with PBS and they were imaged with the Operetta CLS or Opera Phenix (PerkinElmer). Imaging is further detailed in Table 6. For imaging analysis, the Harmony analysis software (PerkinElmer) was used. Cytoplasmic (defined by total α-tubulin staining) intensities per well were used for α-tubulin (acetylated and total) quantification. Intensities were measured per cell and then averaged per well. Mean intensity levels of acetylated tubulin were normalized to the mean intensity levels of total tubulin. The changes in acetylated tubulin were normalized for each plate using GraphPad Prism software: tubulin acetylation in vehicle (DMSO)-treated cells were set to 0% while tubulin acetylation in TSA-treated cells were set to 100%. EC50 values were calculated using the log(inhibitor) vs. response—Variable slope (four parameters) nonlinear regression in GraphPad Prism software.

Compound | IC50 [nM]
Cc1nc(SCC(=O)c2ccc(CNC(=O)CO)s2)c2cc(N3CCCOCC3)ccc2n1 [Example 83, 2-hydroxy-N-((5-(2-((2-methyl-6-(1,4-oxazepan-4-yl)quinazolin-4-yl)thio)acetyl)thiophen-2-yl)methyl)acetamide] | ≤ 100
Cc1nc(SCC(=O)c2ccc(CNC(=O)CO)s2)c2cc(N3CCC(F)(F)C3)ccc2n1 [Example 84, N-((5-(2-((6-(3,3-difluoropyrrolidin-1-yl)-2-methylquinazolin-4-yl)thio)acetyl)thiophen-2-yl)methyl)-2-hydroxyacetamide] | ≤ 100
Cc1nc(SCC(=O)c2ccc(CNC(=O)CO)s2)c2cc(N3CCN(C)CC3)ccc2n1 [Example 85, 2-hydroxy-N-((5-(2-((2-methyl-6-(4-methylpiperazin-1-yl)quinazolin-4-yl)thio)acetyl)thiophen-2-yl)methyl)acetamide] | ≤ 100
Cn1ncc2c(SCC(=O)c3ccc(C4CCN(C(=O)CO)C4)s3)ncnc21 (stereo not shown) [Example 86, 2-hydroxy-1-(3-(5-(2-((1-methyl-1H-pyrazolo[3,4-d]pyrimidin-4-yl)thio)acetyl)thiophen-2-yl)157yrrolidine-1-yl)ethan-1-one] | 1000 to 3330
Cn1ncc2c(SCC(=O)c3ccc(CNS(C)(=O)=O)s3)ncnc21 [Example 87] | 1000 to 3330
CN(Cc1ccc(C(=O)CSc2ncnc3c2cnn3C)s1)S(=O)(=O)C1CC1 [Example 91, N-methyl-N-((5-(2-((1-methyl-1H-pyrazolo[3,4-d]pyrimidin-4-yl)thio)acetyl)thiophen-2-yl)methyl)cyclopropanesulfonamide] | > 3330
CS(=O)(=O)N1CCC(c2ccc(C(=O)CSc3nc(C(F)(F)F)nc4ccccc34)s2)C1 (stereo not shown) [Example 95, 1-(5-(1-(methylsulfonyl)161yrrolidine-3-yl)thiophen-2-yl)-2-((2-(trifluoromethyl)quinazolin-4-yl)thio)ethanone] | 500 to 1000
Cc1nc(SCC(=O)c2ccc(CNS(C)(=O)=O)s2)c2ccccc2n1 [Example 97, N-((5-(2-((2-methylquinazolin-4-yl)thio)acetyl)thiophen-2-yl)methyl)methanesulfonamide] | 1000 to 3330
CS(=O)(=O)NCCc1ccc(C(=O)CSc2nc(C(F)(F)F)nc3ccccc23)s1 [Example 98, N-(2-(5-(2-((2-(trifluoromethyl)quinazolin-4-yl)thio)acetyl)thiophen-2-yl)ethyl)methanesulfonamide] | 1000 to 3330
Cc1nc(SCC(=O)c2ccc(CNC(=O)CO)s2)c2cc(C3CC3)ccc2n1 [Example 106, N-((5-(2-((6-cyclopropyl-2-methylquinazolin-4-yl)thio)acetyl)thiophen-2-yl)methyl)-2-hydroxyacetamide] | 100 to 500
Cc1cc2nc(C(F)(F)F)nc(SCC(=O)c3ccc(CNC(=O)CO)s3)n2n1 [Example 107, 2-hydroxy-N-((5-(2-((7-methyl-2-(trifluoromethyl)pyrazolo[1,5-a][1,3,5]triazin-4-yl)thio)acetyl)thiophen-2-yl)methyl)acetamide] | 100 to 500
COc1cc(F)c2nc(C)nc(SCC(=O)c3ccc(CNC(=O)CO)s3)c2c1 [Example 108, N-((5-(2-((8-fluoro-6-methoxy-2-methylquinazolin-4-yl)thio)acetyl)thiophen-2-yl)methyl)-2-hydroxyacetamide] | 100 to 500
COc1ccc2nc(C)nc(SCC(=O)c3ccc(CN(C)C(=O)CO)s3)c2c1 [Example 109, 2-hydroxy-N-((5-(2-((6-methoxy-2-methylquinazolin-4-yl)thio)acetyl)thiophen-2-yl)methyl)-N-methylacetamide] | 100 to 500
Cc1nc(SCC(=O)c2ccc(CNC(=O)C3CC3(F)F)s2)c2cccnc2n1 (stereo not shown) [Example 110, 2,2-difluoro-N-((5-(2-((2-methylpyrido[2,3-d]pyrimidin-4-yl)thio)acetyl)thiophen-2-yl)methyl)cyclopropane-1-carboxamide] | ≤ 100
Cn1cc2c(SCC(=O)c3ccc(CNC(=O)C4CC4(F)F)s3)nc(C(F)(F)F)nc2n1 (stereo not shown) [Example 111, 2,2-difluoro-N-((5-(2-((2-methyl-6-(trifluoromethyl)-2H-pyrazolo[3,4-d]pyrimidin-4-yl)thio)acetyl)thiophen-2-yl)methyl)cyclopropane-1-carboxamide] | 100 to 500
O=C(CO)NCc1ccc(C(=O)CSc2nc(C(F)(F)F)nc3cc(C4CC4)nn23)s1 [Example 112, N-((5-(2-((7-cyclopropyl-2-(trifluoromethyl)pyrazolo[1,5-a][1,3,5]triazin-4-yl)thio)acetyl)thiophen-2-yl)methyl)-2-hydroxyacetamide] | 100 to 500
O=C(CO)NCc1ccc(C(=O)CSc2nc(C(F)(F)F)nc3ncccc23)s1 [Example 113, 2-hydroxy-N-((5-(2-((2-(trifluoromethyl)pyrido[2,3-d]pyrimidin-4-yl)thio)acetyl)thiophen-2-yl)methyl)acetamide] | ≤ 100
O=C(CSc1nc(C(F)(F)F)nc2ncccc12)c1ccc(CNC(=O)C2CC2(F)F)s1 (stereo not shown) [Example 114, 2,2-difluoro-N-((5-(2-((2-(trifluoromethyl)pyrido[2,3-d]pyrimidin-4-yl)thio)acetyl)thiophen-2-yl)methyl)cyclopropane-1-carboxamide] | ≤ 100
COc1ccc2nc(C)nc(SCC(=O)c3ccc(CCN4CCC(O)C4=O)s3)c2c1 (stereo not shown) [Example 115, 3-hydroxy-1-(2-(5-(2-((6-methoxy-2-methylquinazolin-4-yl)thio)acetyl)thiophen-2-yl)ethyl)pyrrolidin-2-one] | 500 to 1000
CN(Cc1ccc(C(=O)CSc2nc(C(F)(F)F)nc3nn(C)cc23)s1)C(=O)CO [Example 116, 2-hydroxy-N-methyl-N-((5-(2-((2-methyl-6-(trifluoromethyl)-2H-pyrazolo[3,4-d]pyrimidin-4-yl)thio)acetyl)thiophen-2-yl)methyl)acetamide] | 100 to 500
O=C(CO)NCc1ccc(C(=O)CSc2nc3ccc(C(F)(F)F)nc3o2)s1 [Example 117, 2-hydroxy-N-((5-(2-((5-(trifluoromethyl)oxazolo[5,4-b]157yrrolid-2-yl)thio)acetyl)thiophen-2-yl)methyl)acetamide] | ≤ 100
O=C(CO)NCc1ccc(C(=O)CSc2nc3ncc(C(F)(F)F)cc3o2)s1 [Example 118, 2-hydroxy-N-((5-(2-((6-(trifluoromethyl)oxazolo[4,5-b]157yrrolid-2-yl)thio)acetyl)thiophen-2-yl)methyl)acetamide] | 100 to 500
Cc1nc(SCC(=O)c2ccc(CNC(=O)CO)s2)c2cc(C(F)(F)F)cnc2n1 [Example 119, 2-hydroxy-N-((5-(2-((2-methyl-6-(trifluoromethyl)pyrido[2,3-d]pyrimidin-4-yl)thio)acetyl)thiophen-2-yl)methyl)acetamide] | ≤ 100
Cc1nc(SCC(=O)c2ccc(CNC(=O)C3CC3(F)F)s2)c2cc(OC(F)(F)F)ccc2n1 (stereo not shown) [Example 120, 2,2-difluoro-N-((5-(2-((2-methyl-6-(trifluoromethoxy)quinazolin-4-yl)thio)acetyl)thiophen-2-yl)methyl)cyclopropane-1-carboxamide] | 100 to 500
COc1cc2c(SCC(=O)c3ccc(CNC(=O)CO)s3)nc(C)nc2cn1 [Example 121, 2-hydroxy-N-((5-(2-((6-methoxy-2-methylpyrido[3,4-d]pyrimidin-4-yl)thio)acetyl)thiophen-2-yl)methyl)acetamide] | ≤ 100
